This is an account of results in BindingDB's records for doi:10.1016/j.bmcl.2005.06.069 (National Health Research Institutes, 2005).

The target in this test is Echovirus 9. The experiment in a line: Inhibitory activity against Echovirus 9 using plaque reduction assay. (In general: Plaques are areas of infected cells; plaque reduction assays count them against a control.)

SMILES strings stand for the structures.

`C[C@H](CCOc1ccc(-c2ccc(Cl)cc2)cc1)CCN1CCN(c2ccncc2)C1=O` [1-[(S)-5-(4'-Chloro-biphenyl-4-yloxy)-3-methyl-pentyl]-3-pyridin-4-yl-imidazolidin-2-one] gave an IC50 of over 25 µM.

In general, IC50 refers to the concentration at which inhibition is half-maximal.
